Assay results as given in US9040528B2, “Chemical compounds 542” (AstraZeneca AB, priority 2008, dated 2015).

These compounds were tested against Escherichia coli DNA gyrase A/B tetramer (Escherichia coli (strain K12), UniProt P0AES4+P0AES6) (assay: DNA gyrase supercoiling activity fluorescence polarisation assay). Settings: 5 nM enzyme, relaxed plasmid, 0.3 mM ATP, ambient temperature; read-out: E. coli DNA gyrase supercoiling IC50.
Format: biochemical
In short: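 Supercoiling reactions quenched with 40 nM 5′-BODIPY-FL triplex-forming oligonucleotide probe in pH 3.5 NaCl/sodium acetate buffer; after 60 min, fluorescence anisotropy read (ex 485/em 535 nm). IC50 by nonlinear regression, normalised to 0.8% DMSO (100% activity) and 5 μM ciprofloxacin (0% activity).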

Q: For `C[C@H]1CN2c3c(cc4c(-c5ccncn5)noc4c3F)CC3(C(=O)NC(=O)NC3=O)[C@@H]2[C@@H](C)O1` [Example 74(a), (2S,4R,4aR)-11-fluoro-2,4-dimethyl-8-(pyrimidin-4-yl)-2,4,4a,6-tetrahydro-1H,1′H-spiro[isoxazolo[4,5-g][1,4]oxazino[4,3-a]quinoline-5,5′-pyrimidine]-2′,4′,6′(3′H)-trione], which IC50 is on record?
A: 27000 nM

Q: How did the IC50 turn out when `Cc1csc(-c2noc3c(Cl)c4c(nc23)CC2(C(=O)NC(=O)NC2=O)[C@H]2[C@H](C)O[C@H](C)CN42)n1` (relative stereo) [Example 113, (2R,4S,4aS)-rel-11-Chloro-2,4-dimethyl-8-(4-methylthiazol-2-yl)-2,4,4a,6-tetrahydro-1H,1′H-spiro[isoxazolo[4,5-g][1,4]oxazino[4,3-a][1,5]naphthyridine-5,5′-pyrimidine]-2′,4′,6′(3′H)-trione] was run?
A: 2500 nM

Q: For `C[C@@H]1CN2c3c(cc4c(C(=O)N5CCC(F)(F)C5)noc4c3F)CC3(C(=O)NC(=O)NC3=O)[C@H]2[C@H](C)O1` (racemic) [Example 158, (2R,4 S,4 aS)-rel-8-(3,3-difluoropyrrolidine-1-carbonyl)-11-fluoro-2,4-dimethyl-2,4,4a,6-tetrahydro-1H,1′H-spiro[isoxazolo[4,5-g][1,4]oxazino[4,3-a]quinoline-5,5′-pyrimidine]-2′,4′,6′(3′H)-trione], which IC50 is on record?
A: 1400 nM

Q: For `CON(C)C(=O)c1noc2c(F)c3c(cc12)CC1(C(=O)NC(=O)NC1=O)[C@H]1[C@H](C)O[C@H](C)CN31` (relative stereo) [Example 137, (2R,4S,4aS)-rel-11-fluoro-N-methoxy-N,2,4-trimethyl-2′,4′,6′-trioxo-2,2′,3′,4,4a,4′,6,6′-octahydro-1H,1′H-spiro[isoxazolo[4,5-g][1,4]oxazino[4,3-a]quinoline-5,5′-pyrimidine]-8-carboxamide], which IC50 is on record?
A: 2300 nM

Q: `Cc1cc(C(F)(F)F)nn1-c1noc2c(F)c3c(cc12)CC1(C(=O)NC(=O)NC1=O)[C@H]1[C@H](C)O[C@H](C)CN31` (relative stereo) [Example 27, (2R,4S,4aS)-rel-11-fluoro-2,4-dimethyl-8-[5-methyl-3-(trifluoromethyl)-1H-pyrazol-1-yl]-1,2,4,4a-tetrahydro-2′H,6H-spiro[isoxazolo[4,5-g][1,4]oxazino[4,3-a]quinoline-5,5′-pyrimidine]-2′,4′,6′(1′H,3′H)-trione] was tested. Which IC50 did it give?
A: 7100 nM

Q: `C[C@@H]1CN2c3c(cc4c(-c5ccccc5)noc4c3F)CC3(C(=O)NC(=O)NC3=O)[C@H]2[C@H](C)O1` (relative stereo) [Example 3, (2R,4S,4aS)-rel-11-fluoro-2,4-dimethyl-8-phenyl-1,2,4,4a-tetrahydro-2′H,6H-spiro[isoxazolo[4,5-g][1,4]oxazino[4,3-a]quinoline-5,5′-pyrimidine]-2′,4′,6′(1′H,3′H)-trione] was tested. Which IC50 did it give?
A: 400 nM

Q: With `CSc1cnc(-c2noc3c(F)c4c(cc23)CC2(C(=O)NC(=O)NC2=O)[C@H]2[C@H](C)O[C@H](C)CN42)cn1` (relative stereo) [Example 80, (2R,4S,4aS)-rel-11-fluoro-2,4-dimethyl-8-(5-(methylthio)pyrazin-2-yl)-2,4,4a,6-tetrahydro-1H,1′H-spiro[isoxazolo[4,5-g][1,4]oxazino[4,3-a]quinoline-5,5′-pyrimidine]-2′,4′,6′(3′H)-trione] as the compound, how does the IC50 read?
A: 1700 nM

Q: For `C[C@@H]1CN2c3c(cc4c(-n5cc(CO)cn5)noc4c3F)CC3(C(=O)NC(=O)NC3=O)[C@H]2[C@H](C)O1` (relative stereo) [Example 190, (2R,4S,4aS)-rel-11-fluoro-8-[4-(hydroxymethyl)-1H-pyrazol-1-yl]-2,4-dimethyl-1,2,4,4a-tetrahydro-2′H,6H-spiro[1,4-oxazino[4,3-a][1,2]oxazolo[4,5-g]quinoline-5,5′-pyrimidine]-2′,4′,6′(1′H,3′H)-trione], which IC50 is on record?
A: 2100 nM

Q: With `C[C@@H]1CN2c3c(cc4c(C(=O)N5CCOCC5)noc4c3F)CC3(C(=O)NC(=O)NC3=O)[C@H]2[C@H](C)O1` (relative stereo) [Example 135, (2R,4S,4aS)-rel-11-fluoro-2,4-dimethyl-8-(morpholine-4-carbonyl)-2,4,4a,6-tetrahydro-1H,1′H-spiro[isoxazolo[4,5-g][1,4]oxazino[4,3-a]quinoline-5,5′-pyrimidine]-2′,4′,6′(3′H)-trione] as the compound, how does the IC50 read?
A: 3300 nM

Q: Which IC50 does the source give for `C[C@@H]1CN2c3c(cc4c(-n5cc(C(N)=O)cn5)noc4c3F)CC3(C(=O)NC(=O)NC3=O)[C@H]2[C@H](C)O1` (relative stereo) [Example 189, 1-[(2R,4S,4aS)-rel-11-fluoro-2,4-dimethyl-2′,4′,6′-trioxo-1,1′,2,3′,4,4′,4a,6′-octahydro-2′H,6H-spiro[1,4-oxazino[4,3-a][1,2]oxazolo[4,5-g]quinoline-5,5′-pyrimidin]-8-yl]-1H-pyrazole-4-carboxamide] here?
A: 2200 nM

Q: How did the IC50 turn out when `C[C@@H]1CN2c3c(cc4c(-c5cnccn5)noc4c3F)CC3(C(=O)NC(=O)NC3=O)[C@H]2[C@H](C)O1` (relative stereo) [Example 165, (2R,4S,4aS)-rel-11-fluoro-2,4-dimethyl-8-(pyrazin-2-yl)-1,2,4,4a-tetrahydro-2′H,6H-spiro[1,4-oxazino[4,3-a][1,2]oxazolo[4,5-g]quinoline-5,5′-pyrimidine]-2′,4′,6′(1′H,3′H)-trione] was run?
A: 400 nM

Q: How did the IC50 turn out when `C[C@@H]1CN2c3c(cc4c(N5CCCC5)noc4c3F)CC3(C(=O)NC(=O)NC3=O)[C@H]2[C@H](C)O1` (relative stereo) [Example 25, (2R,4S,4aS)-rel-11-fluoro-2,4-dimethyl-8-(pyrrolidin-1-yl)-1,2,4,4a-tetrahydro-2′H,6H-spiro[isoxazolo[4,5-g][1,4]oxazino[4,3-a]quinoline-5,5′-pyrimidine]-2′,4′,6′(1′H,3′H)-trione] was run?
A: 1500 nM

Q: Which IC50 does the source give for `Cc1ncsc1-c1noc2c(F)c3c(cc12)CC1(C(=O)NC(=O)NC1=O)[C@@H]1[C@@H](C)O[C@@H](C)CN31` (relative stereo) [Example 71, (2R,4S,4aS)-rel-11-fluoro-2,4-dimethyl-8-(4-methyl-1,3-thiazol-5-yl)-1,2,4,4a-tetrahydro-2′H,6H-spiro[1,4-oxazino[4,3-a][1,2]oxazolo[4,5-g]quinoline-5,5′-pyrimidine]-2′,4′,6′(1′H,3′H)-trione] here?
A: 900 nM

Q: With `C[C@@H]1CN2c3c(cc4c(Cn5cncn5)noc4c3F)CC3(C(=O)NC(=O)NC3=O)[C@H]2[C@H](C)O1` (relative stereo) [Example 81, (2R,4S,4aS)-rel-8-((1H-1,2,4-triazol-1-yl)methyl)-11-fluoro-2,4-dimethyl-2,4,4a,6-tetrahydro-1H,1′H-spiro[isoxazolo[4,5-g][1,4]oxazino[4,3-a]quinoline-5,5′-pyrimidine]-2′,4′,6′(3′H)-trione] as the compound, how does the IC50 read?
A: 3000 nM

Q: Which IC50 does the source give for `C[C@@H]1CN2c3c(nc4c(-c5cnc(Br)s5)noc4c3Cl)CC3(C(=O)NC(=O)NC3=O)[C@H]2[C@H](C)O1` (relative stereo) [Example 119, (2R,4S,4aS)-rel-11-chloro-2,4-dimethyl-8-(2-bromothiazol-5-yl)-2,4,4a,6-tetrahydro-1H,1′H-spiro[isoxazolo[4,5-g][1,4]oxazino[4,3-a][1,5]naphthyridine-5,5′-pyrimidine]-2′,4′,6′(3′H)-trione] here?
A: 3100 nM

Q: For `C[C@@H]1CN2c3c(cc4c(C(=O)N5CC(F)(F)C5)noc4c3F)CC3(C(=O)NC(=O)NC3=O)[C@H]2[C@H](C)O1` [Example 95(a), (2R,4S,4aS)-8-(3,3-difluoroazetidine-1-carbonyl)-11-fluoro-2,4-dimethyl-2,4,4a,6-tetrahydro-1H,1′H-spiro[isoxazolo[4,5-g][1,4]oxazino[4,3-a]quinoline-5,5′-pyrimidine]-2′,4′,6′(3′H)-trione], which IC50 is on record?
A: 1000 nM

Q: For `C[C@@H]1CN2c3c(cc4c(-c5ncnn5C)noc4c3F)CC3(C(=O)NC(=O)NC3=O)[C@H]2[C@H](C)O1` [Example 178, (2R,4S,4aS)-11-fluoro-2,4-dimethyl-8-(1-methyl-1H-1,2,4-triazol-5-yl)-2,4,4a,6-tetrahydro-1H,1′H-spiro[isoxazolo[4,5-g][1,4]oxazino[4,3-a]quinoline-5,5′-pyrimidine]-2′,4′,6′(3′H)-trione], which IC50 is on record?
A: 1300 nM

Q: With `C[C@@H]1CN2c3c(cc4c(C(=O)NCc5ccn(C)n5)noc4c3F)CC3(C(=O)NC(=O)NC3=O)[C@H]2[C@H](C)O1` (relative stereo) [Example 161, (2R,4S,4aS)-rel-11-fluoro-2,4-dimethyl-N-((1-methyl-1H-pyrazol-3-yl)methyl)-2′,4′,6′-trioxo-2,2′,3′,4,4a,4′,6,6′-octahydro-1H,1′H-spiro[isoxazolo[4,5-g][1,4]oxazino[4,3-a]quinoline-5,5′-pyrimidine]-8-carboxamide] as the compound, how does the IC50 read?
A: 1300 nM

Q: For `C[C@@H]1CN2c3c(cc4c(-c5cncn5C)noc4c3F)CC3(C(=O)NC(=O)NC3=O)[C@H]2[C@H](C)O1` (relative stereo) [Example 70, (2R,4S,4aS)-rel-11-fluoro-2,4-dimethyl-8-(1-methyl-1H-imidazol-5-yl)-1,2,4,4a-tetrahydro-2′H,6H-spiro[1,4-oxazino[4,3-a][1,2]oxazolo[4,5-g]quinoline-5,5′-pyrimidine]-2′,4′,6′(1′H,3′H)-trione], which IC50 is on record?
A: 500 nM

Q: How did the IC50 turn out when `CCNC(=O)c1noc2c(F)c3c(cc12)CC1(C(=O)NC(=O)NC1=O)[C@H]1[C@H](C)O[C@H](C)CN31` (racemic) [Example 138, (2R,4 S,4 aS)-rel-N-ethyl-11-fluoro-2,4-dimethyl-2′,4′,6′-trioxo-2,2′,3′,4,4a,4′,6,6′-octahydro-1H,1′H-spiro[isoxazolo[4,5-g][1,4]oxazino[4,3-a]quinoline-5,5′-pyrimidine]-8-carboxamide] was run?
A: 1700 nM

Q: How did the IC50 turn out when `C[C@@H]1CN2c3c(cc4c(C(=O)N5CCC(F)(F)CC5)noc4c3F)CC3(C(=O)NC(=O)NC3=O)[C@H]2[C@H](C)O1` (relative stereo) [Example 157, (2R,4S,4aS)-rel-8-(4,4-difluoropiperidine-1-carbonyl)-11-fluoro-2,4-dimethyl-2,4,4a,6-tetrahydro-1H,1′H-spiro[isoxazolo[4,5-g][1,4]oxazino[4,3-a]quinoline-5,5′-pyrimidine]-2′,4′,6′(3′H)-trione] was run?
A: 6400 nM
